Source: patent publication US11427548B2 (Arvinas Operations, Inc., priority 2015, dated 2022)
Entries after “also recorded” stand apart in the source; their conditions may differ. Like-named read-outs stand apart in the source and are kept apart here.

Columns and labels:
[1] = tested on: LNCaP cells transduced with AR F876L construct; test: Anti-proliferation in LNCaP F876L (CellTiterGlo); assay type: cell-based; conditions: Charcoal Stripped Serum media, indicated doses for 7 days
Procedure: FIG. 3. Anti-proliferation in LNCaP F876L. […] LNCaP cells transduced with AR F876L construct were cultured in Charcoal Stripped Serum containing media.
4. Anti-Proliferation in LNCaP F876L.
LNCaP cells transduced with AR F876L construct were cultured in Charcoal Stripped Serum containing media. […] CellTiterGlo reagent (Promega) was employed to assess proliferation.

AR = biological target: T1, AR (Homo sapiens, UniProt P10275+P40337, T878A); test: AR degradation of PROTAC is E3 ligase dependent (LNCaP cells); assay type: cell-based
T1 construct: Compounds have been evaluated in this assay in LNCaP and/or VCaP cells utilizing similar protocols; endogenous in cells; host or cells: LNCaP cells
T1 sequence (P10275 whole entry T878A): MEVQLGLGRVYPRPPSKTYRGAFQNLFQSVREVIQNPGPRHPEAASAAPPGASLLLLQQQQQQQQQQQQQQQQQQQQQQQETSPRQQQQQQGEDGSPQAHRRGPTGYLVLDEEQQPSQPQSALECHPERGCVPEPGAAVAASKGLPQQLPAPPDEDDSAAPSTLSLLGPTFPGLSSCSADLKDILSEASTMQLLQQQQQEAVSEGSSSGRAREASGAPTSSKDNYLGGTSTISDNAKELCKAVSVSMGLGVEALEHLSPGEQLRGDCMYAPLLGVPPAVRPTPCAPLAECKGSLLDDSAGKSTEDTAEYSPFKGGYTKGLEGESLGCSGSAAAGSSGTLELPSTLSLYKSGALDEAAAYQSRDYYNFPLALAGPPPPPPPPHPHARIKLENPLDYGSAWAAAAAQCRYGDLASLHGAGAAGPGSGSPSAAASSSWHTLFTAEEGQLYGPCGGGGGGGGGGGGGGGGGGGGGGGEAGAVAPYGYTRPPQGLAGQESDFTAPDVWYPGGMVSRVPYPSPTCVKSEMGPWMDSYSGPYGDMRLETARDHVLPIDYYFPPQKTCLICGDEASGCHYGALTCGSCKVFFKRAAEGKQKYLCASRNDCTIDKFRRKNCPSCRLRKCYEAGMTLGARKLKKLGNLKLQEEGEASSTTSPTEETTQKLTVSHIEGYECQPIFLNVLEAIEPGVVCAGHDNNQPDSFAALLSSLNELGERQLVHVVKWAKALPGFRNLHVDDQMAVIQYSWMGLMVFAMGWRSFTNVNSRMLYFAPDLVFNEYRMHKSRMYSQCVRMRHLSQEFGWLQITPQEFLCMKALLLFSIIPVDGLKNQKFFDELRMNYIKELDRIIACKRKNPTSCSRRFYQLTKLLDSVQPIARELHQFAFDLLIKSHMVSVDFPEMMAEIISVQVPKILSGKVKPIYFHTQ
T1 sequence (P40337 whole entry): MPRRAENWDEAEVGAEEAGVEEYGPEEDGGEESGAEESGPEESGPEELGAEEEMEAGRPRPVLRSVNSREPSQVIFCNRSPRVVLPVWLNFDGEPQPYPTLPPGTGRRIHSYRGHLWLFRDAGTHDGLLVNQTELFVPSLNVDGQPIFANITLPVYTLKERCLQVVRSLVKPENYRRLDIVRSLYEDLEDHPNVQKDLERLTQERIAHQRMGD
T1 sequence (Q15369 whole entry partner): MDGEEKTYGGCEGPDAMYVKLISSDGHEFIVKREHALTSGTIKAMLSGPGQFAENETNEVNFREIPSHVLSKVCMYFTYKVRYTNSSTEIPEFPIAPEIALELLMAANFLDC
T1 sequence (Q15370 whole entry partner): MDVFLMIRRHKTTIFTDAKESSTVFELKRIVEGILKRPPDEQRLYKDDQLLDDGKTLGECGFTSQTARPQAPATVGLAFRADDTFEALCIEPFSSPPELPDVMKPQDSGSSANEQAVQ
Text: FIG. 7A and FIG. 7B. AR degradation of PROTAC is E3 ligase dependent.
8. AR Degradation of PROTAC is E3 Ligase Dependent.

Androgen Receptor [2] = biological target: T2, Androgen Receptor (Homo sapiens, UniProt P10275+P40337, T878A); test: Androgen Receptor ELISA assay (PathScan AR ELISA) in LNCaP cells: AR degradation, Dmax and DC50; assay type: cell-based
T2 construct: Compounds have been evaluated in this assay in LNCaP and/or VCaP cells utilizing similar protocols; endogenous in cells; host or cells: LNCaP cells
T2 sequence (P10275 whole entry T878A): as the sequence (P10275 whole entry T878A) above
T2 sequence (P40337 whole entry): as the sequence (P40337 whole entry) above
T2 sequence (Q15369 whole entry partner): as the sequence (Q15369 whole entry partner) above
T2 sequence (Q15370 whole entry partner): as the sequence (Q15370 whole entry partner) above

[3] = PROTAC subcutaneous pharmacokinetics in CD-1 mice; assay type: in vivo; conditions: male, plasma, CD-1 Mouse, 10 mg/kg SC dose, vehicle ESD-1
Procedure: 9. PROTAC Prodrug Oral Pharmacokinetics and PROTAC Subcutaneous Phamacokinetics.
Representative Pharmacokinetic Procedure
Male CD-1 mice (6-8 weeks old, weighing 20-30 g, 3 per study) with free access to food and water were administered with the test article at 10 mg/kg either by oral gavage or sub-cutaneous injection in the formulation specified in tables 20 and 21, at 10 mL/kg.
Approximately 0.04 mL blood samples were collected from the dorsal metatarsal vein serially at 0.25, 0.5, 1, 2, 4, 8 and 24 h timepoints; heparin was used as the anticoagulant. The samples were centrifuged at 4000 g for 5 min at 4° C. then stored at −75° C. prior to analysis.
The plasma samples were analysed via an LC/MS/MS method quantitating for unchanged, administered test article, and/or a derivative species as appropriate. WinNonlin (Phoenix™) was used for the pharmacokinetic calculations and modeling, to generate parameters such as Cmax and AUC.

Androgen Receptor [4] = biological target: T3, Androgen Receptor (Homo sapiens, UniProt P10275); test: Androgen Receptor ELISA assay (PathScan AR ELISA) in VCaP cells: AR degradation, Dmax and DC50; assay type: cell-based; conditions: for Dmax: VCaP, read-out: VCaP Dmax (%); for DC50: read-out: VCaP DC50, concentration that caused 50% Androgen Receptor degradation
T3 construct: endogenous in cells; host or cells: VCaP cells
T3 sequence (P10275 1-920): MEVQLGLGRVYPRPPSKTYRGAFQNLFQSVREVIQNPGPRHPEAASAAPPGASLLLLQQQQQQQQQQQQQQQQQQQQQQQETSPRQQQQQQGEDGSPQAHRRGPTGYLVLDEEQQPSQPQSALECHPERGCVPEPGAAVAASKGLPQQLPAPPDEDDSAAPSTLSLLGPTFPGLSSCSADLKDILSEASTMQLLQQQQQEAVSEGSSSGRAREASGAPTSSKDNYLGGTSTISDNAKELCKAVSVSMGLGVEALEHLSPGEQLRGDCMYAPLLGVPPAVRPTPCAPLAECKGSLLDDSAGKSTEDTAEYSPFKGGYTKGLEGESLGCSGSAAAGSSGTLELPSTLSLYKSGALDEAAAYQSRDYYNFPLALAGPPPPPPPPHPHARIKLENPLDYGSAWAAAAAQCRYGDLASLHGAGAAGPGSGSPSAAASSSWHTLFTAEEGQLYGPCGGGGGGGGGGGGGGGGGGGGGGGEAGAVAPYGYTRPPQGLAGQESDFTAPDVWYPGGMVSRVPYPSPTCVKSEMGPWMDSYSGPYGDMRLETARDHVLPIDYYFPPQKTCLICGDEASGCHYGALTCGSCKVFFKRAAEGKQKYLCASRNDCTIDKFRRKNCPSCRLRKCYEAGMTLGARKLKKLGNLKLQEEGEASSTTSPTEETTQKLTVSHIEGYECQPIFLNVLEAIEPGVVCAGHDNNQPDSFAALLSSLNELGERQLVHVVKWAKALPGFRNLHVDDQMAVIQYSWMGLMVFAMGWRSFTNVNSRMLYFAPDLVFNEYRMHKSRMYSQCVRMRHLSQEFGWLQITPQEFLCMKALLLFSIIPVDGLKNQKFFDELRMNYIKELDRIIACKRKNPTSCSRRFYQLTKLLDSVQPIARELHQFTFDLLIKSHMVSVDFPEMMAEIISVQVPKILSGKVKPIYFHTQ
Procedure, shortened: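 After 24 h exposure of VCaP cells (charcoal-stripped serum, 0.1 nM R1881 agonist, 0.1% DMSO) to seven half-log compound concentrations, residual AR in lysates was measured by PathScan ELISA (TMB absorbance, 450 nm). Cells were plated at 30,000/well and grown at least 3 days beforehand.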

C57B6 mouse model = test: Prostate involution in C57B6 mouse model; assay type: in vivo; conditions: 12-week old male C57BL/6 mice; IP, QD, 1 and 3 mpk; 10 days
Text: FIG. 5. Prostate involution in C57B6 mouse model.
6. Prostate Involution in C57B6 Mouse Model.

VCaP xenograft = test: Tumor growth inhibition in VCaP xenograft model; assay type: in vivo; conditions: VCaP cells s.c. in castrated CB17 scid mice; enzalutamide PO, QD, 30 mpk; Example 163 IP, QD, 30, 10 and 3 mpk
Text: FIG. 6. Tumor growth inhibition in VCaP xenograft model. VCaP cells were implanted into CB17 scid mice subcutaneously. Once the tumors were palpable, the mice were castrated, leading to temporary tumor stasis.
7. Tumor Growth Inhibition in VCaP Xenograft Model.
VCaP cells were implanted into CB17 scid mice subcutaneously. Once the tumors were palpable, the mice were castrated, leading to temporary tumor stasis.

VCaP cells = test: VCaP cell proliferation assay (Cell Titer Glo), GI50; assay type: cell-based; conditions: Homo sapiens; VCaP cells, 0.1 nM R1881; Table 37; read-out: GI50, Inhibition of VCaP Proliferation
Procedure, shortened: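 VCaP cells at 7,500/well were androgen-depleted for at least 3 days in phenol red-free RPMI with 5% charcoal-stripped FBS, then dosed with PROTACs plus 0.1 nM R1881. Growth was read by CellTiter Glo luminescence against a baseline taken on the day of dosing, giving GI50.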

Row | Structure (SMILES) | proliferation / agonist activity in LNCaP F876L cells [1] | AR degradation activity in the presence of VHL E3 ligase ligand compound B (AR; 24 hours, 10 uM compound B) | degradation of AR (AR; PROTAC versus inactive epimer analog unable to bind VHL E3 ligase) | DC50 (Androgen Receptor [2]; concentration that caused 50% Androgen Receptor degradation) | Dmax (Androgen Receptor [2]; highest percentage of Androgen Receptor degradation observed) | AUC(0-t) ([3]; read-out: Plasma Exposure AUC0-24) | Cmax ([3]; read-out: Plasma Exposure Cmax) | Dmax (Androgen Receptor [4]) | DC50 (Androgen Receptor [4]; VCaP cells) | prostate weights (prostate involution) (C57B6 mouse model) | Tumor growth inhibition (VCaP xenograft) | GI50 (VCaP cells) | Dmax (Androgen Receptor [4]; highest percentage of Androgen Receptor degradation observed, VCaP cells (Table 32)) | DC50 (Androgen Receptor [4]; VCaP cells (Table 32))
1 | Cc1ncsc1-c1ccc(CNC(=O)[C@@H]2C[C@@H](O)CN2C(=O)[C@@H](NC(=O)COCCCOCCCCCOc2ccc(N3C(=S)N(c4ccc(C#N)c(C(F)(F)F)c4)C(=O)C3(C)C)cc2)C(C)(C)C)cc1 [Example 1, (2S,4R)-1-((S)-2-(2-(3-(5-(4-(3-(4-cyano-3-(trifluoromethyl)phenyl)-5,5-dimethyl-4-oxo-2-thioxoimidazolidin-1-yl)phenoxy)pentyloxy)propoxy)acetamido)-3,3-dimethylbutanoyl)-4-hydroxy-N-(4-(4-methylthiazol-5-yl)benzyl)pyrrolidine-2-carboxamide] | did not exhibit agonist activity; also recorded: Anti-proliferation in LNCaP F876L cells observed | greatly diminishes the AR degradation activity | significant degradation of AR | < 50 nM | > 71% | 15600 ng·h/mL | 1150 ng/mL | 51 to 70% | < 50 nM | – | – | – | – | –
2 | Cc1ncsc1-c1ccc(CNC(=O)[C@@H]2C[C@@H](O)CN2C(=O)[C@@H](NC(=O)COCCCCOc2ccc(C(=O)N[C@H]3C(C)(C)[C@H](Oc4ccc(C#N)c(Cl)c4)C3(C)C)cc2)C(C)(C)C)cc1 [Example 163, (2S,4R)-1-[(2S)-3,3-dimethyl-2-{2-[4-(4-{[trans-3-(3-chloro-4-cyanophenoxy)-2,2,4,4-tetramethylcyclobutyl]carbamoyl}phenoxy)butoxy]acetamido}butanoyl]-4-hydroxy-N-{[4-(4-methyl-1,3-thiazol-5-yl)phenyl]methyl}pyrrolidine-2-carboxamide] | – | – | – | – | – | – | – | – | – | significant reduction in prostate weights; also recorded: significant prostate involution | Tumor growth inhibition was observed | ≤ 50 nM | > 71% | < 50 nM
